In US7238801B2, “Phthalocyanine compound, method for production thereof, and near infrared absorbing dye and near infrared absorbing filter using same” (Nippon Shokubai Co., Ltd., priority 2002, dated 2007):
Like-named read-outs stand apart in the source and are kept apart here.

Assays:
Assay type in all cases: physicochemical
[1] = Maximum absorption wavelength by spectrophotometer
Protocol: Now, working examples and comparative examples will be described below. The maximum absorption wavelengths (λmax) reported in this invention are magnitudes determined in acetone.
The phthalocyanine compound obtained in the present example, i.e. VOPc(PhS)8{2,6-(CH3)2PhO}4{(C2H5)2NCH2CH2NH}4, was tested for maximum absorption wavelengths in acetone and in chloroform by the use of a spectrophotometer (made by Shimadzu Seisakusho Ltd. and sold under the trademark designation of “UVl-3100”).

[2] = Solubility in toluene and methyl ethyl ketone at room temperature; conditions: 10 ml, room temperature (25° C.), visual; for Solubility MEX: methyl ethyl ketone
Description: The solubility shown in Table 23 represents the data obtained by rating the relevant values on the […] scale, wherein ⊚ stands for a value of not less than 5% by weight, ◯ for a value of not less than 1% by weight and less than 5% by weight, Δ for a value of not less than 0.1% by weight and less than 1% by weight, and X for a value of less than 0.1% by weight.

[3] = Maximum absorption wavelength by spectrophotometer; remark: listed apart in the source

Row | Substance | Max. absorption wavelength (in acetone) [1] | Max. absorption wavelength (in chloroform) [1] | Solubility MEX [2] | Solubility toluene [2] | Max. absorption wavelength (in acetone) [3]
1 | VOPc(2,5-Cl2PhO)8{2,6-(CH3)2PhO}4{Ph(CH)3CHNH}3]F [reference compound] | 834 nm |  |  |  | 
2 | VOPc(PhS)8{2,6-(CH3)2PhO}4{(CH3)2CHO(CH2)3NH}4 [Example 9] | 930 nm | 949 nm | ⊚ (a value of not less than 5% by weight) | ⊚ (a value of not less than 5% by weight) | 
3 | VOPc(4-CNPhO)8{2,6-(CH3)2PhO}4{Ph(CH)3CHNH}3F [reference compound] | 834 nm |  |  |  | 
4 | VOPc(PhS)8{2,6-(CH3)2PhO}4{CH3(CH2)7NH}4 [Example 18] | 931 nm | 950 nm | ⊚ (a value of not less than 5% by weight) | ⊚ (a value of not less than 5% by weight) | 
5 | VOPc{4-(CH3O)PhS}8{2,6-(CH3)2PhO}4{CH3(CH2)3CH(C2H5)CH2NH}4 [Example 17] | 960 nm | 980 nm | ⊚ (a value of not less than 5% by weight) | ⊚ (a value of not less than 5% by weight) | 962 nm
6 | VOPc(PhS)8{2,6-(CH3)2PhO}4{CH3(CH2)17NH}4 [Example 19] | 935 nm | 954 nm | ⊚ (a value of not less than 5% by weight) | ⊚ (a value of not less than 5% by weight) | 
7 | VOPc(PhS)8{2,6-(CH3)2PhO}4(PhCH2NH)4 [reference compound] | 912 nm |  |  |  | 
8 | VOPc{2-(CH3O)PhS}8{2,6-(CH3)2PhO}4{(C2H5)2NCH2CH2NH}4 [Example 2] | 950 nm | 970 nm | ⊚ (a value of not less than 5% by weight) | ⊚ (a value of not less than 5% by weight) | 
9 | VOPc(PhS)8{2,6-(CH3)2PhO}4{CH3(CH2)3CH(C2H5)CH2NH}4 [Example 16] | 939 nm | 958 nm | ⊚ (a value of not less than 5% by weight) | ⊚ (a value of not less than 5% by weight) | 
10 | VOPc(PhS)8{2,6-(CH3)2PhO}4[{(CH3)2CH}2NCH2CH2NH]4 [Example 3] | 952 nm | 970 nm | ⊚ (a value of not less than 5% by weight) | ⊚ (a value of not less than 5% by weight) | 
11 | VOPc(PhS)8{2,6-(CH3)2PhO}4{CH3(CH2)3CH(C2H5)CH2O(CH2)3NH}4 [Example 11] | 933 nm | 952 nm | ⊚ (a value of not less than 5% by weight) | ⊚ (a value of not less than 5% by weight) | 
12 | VOPc(PhS)8{2,6-(CH3)2PhO}4{CH3(CH2)5NH}4 [Example 15] | 930 nm | 948 nm | ⊚ (a value of not less than 5% by weight) | ⊚ (a value of not less than 5% by weight) | 
13 | VOPc(2,5-Cl2PhO)8{2,6-Br2-4-CH3PhO}4 {Ph(CH)3CHNH}3]F [reference compound] | 840 nm |  |  |  | 
14 | VOPc(PhS)8{2,6-(CH3)2PhO}4{(C2H5)2NCH2CH2NH}4 [Example 1] | 941 nm | 960 nm | ⊚ (a value of not less than 5% by weight) | ⊚ (a value of not less than 5% by weight) | 
15 | VOPc(PhS}8{2,6-(CH3)2PhO}4[{CH3(CH2)2CH}2NCH2CH2NH]4 [Example 4] | 944 nm | 963 nm | ⊚ (a value of not less than 5% by weight) | ⊚ (a value of not less than 5% by weight) | 
16 | VOPc(2,5-Cl2PhO)8{2,6-(CH3)2PhO}4(PhCH2NH)4 [reference compound] | 870 nm |  |  |  | 
17 | VOPc(PhS)8{2,6-(CH3)2PhO}4{CH3(CH2)3O(CH2)3NH}4 [Example 10] | 930 nm | 950 nm | ⊚ (a value of not less than 5% by weight) | ⊚ (a value of not less than 5% by weight) | 
18 | VOPc(PhS)8{2,6-(CH3)2PhO}4{(CH3CH2O(CH2)3NH}4 [Example 8] | 928 nm | 947 nm | ⊚ (a value of not less than 5% by weight) | ⊚ (a value of not less than 5% by weight) | 
19 | CuPc(2,5-Cl2PhO)8{2,6-(CH3)2PhO}4(PhCH2NH)4 [reference compound] | 807 nm |  |  |  | 
